From ChEMBL document CHEMBL1137122, “Solution phase parallel synthesis and evaluation of MAPK inhibitory activities of close structural analogues of a Ras pathway modulator” (Bioorg Med Chem Lett, 2004)

Columns and labels:
HCT-116 [1] = experiment: Ability of compound to inhibit anchorage independent colony formation (soft agar growth assay) in HCT116 cells; type: functional; details: Homo sapiens
HCT-116 [2] = experiment: cells; details: Homo sapiens
Description: Antiproliferative activity was evaluated using HCT116 cells in WST-1 assay at 15 uM

[3] = molecular target: T1, Serine/threonine-protein kinase RAF and Dual specificity mitogen-activated protein kinase kinase 1 (Raf/MEK) (Homo sapiens, UniProt P04049+Q02750); experiment: Inhibitory activity in EGF-stimulated Elk1-luciferase reporter assay in HeLa cells at 15 uM; type: functional, cell-based
HCT-116 [4] = experiment: Antiproliferative activity was evaluated using HCT116 cells in WST-1 assay; type: functional; details: Homo sapiens
[5] = molecular target: T1, Serine/threonine-protein kinase RAF and Dual specificity mitogen-activated protein kinase kinase 1 (Raf/MEK); experiment: Inhibitory activity in EGF-stimulated Elk1-luciferase reporter assay in HeLa cells at 30 uM; type: functional, cell-based
[6] = molecular target: T1, Serine/threonine-protein kinase RAF and Dual specificity mitogen-activated protein kinase kinase 1 (Raf/MEK); experiment: Inhibition of EGF-stimulated Elk1-luciferase reporter assay in HeLa cells; type: functional, cell-based
[7] = molecular target: T1, Serine/threonine-protein kinase RAF and Dual specificity mitogen-activated protein kinase kinase 1 (Raf/MEK); experiment: Inhibitory activity in EGF-stimulated Elk1-luciferase reporter assay in HeLa cells at 20 uM; type: functional, cell-based
HCT-116 [8] = experiment: Antiproliferative activity was evaluated using HCT116 cells in WST-1 assay at 60 uM; type: functional; details: Homo sapiens
[9] = molecular target: T1, Serine/threonine-protein kinase RAF and Dual specificity mitogen-activated protein kinase kinase 1 (Raf/MEK); experiment: Inhibitory activity in EGF-stimulated Elk1-luciferase reporter assay in HeLa cells at 60 uM; type: functional, cell-based

T1 sequence (P04049 whole entry, looked up): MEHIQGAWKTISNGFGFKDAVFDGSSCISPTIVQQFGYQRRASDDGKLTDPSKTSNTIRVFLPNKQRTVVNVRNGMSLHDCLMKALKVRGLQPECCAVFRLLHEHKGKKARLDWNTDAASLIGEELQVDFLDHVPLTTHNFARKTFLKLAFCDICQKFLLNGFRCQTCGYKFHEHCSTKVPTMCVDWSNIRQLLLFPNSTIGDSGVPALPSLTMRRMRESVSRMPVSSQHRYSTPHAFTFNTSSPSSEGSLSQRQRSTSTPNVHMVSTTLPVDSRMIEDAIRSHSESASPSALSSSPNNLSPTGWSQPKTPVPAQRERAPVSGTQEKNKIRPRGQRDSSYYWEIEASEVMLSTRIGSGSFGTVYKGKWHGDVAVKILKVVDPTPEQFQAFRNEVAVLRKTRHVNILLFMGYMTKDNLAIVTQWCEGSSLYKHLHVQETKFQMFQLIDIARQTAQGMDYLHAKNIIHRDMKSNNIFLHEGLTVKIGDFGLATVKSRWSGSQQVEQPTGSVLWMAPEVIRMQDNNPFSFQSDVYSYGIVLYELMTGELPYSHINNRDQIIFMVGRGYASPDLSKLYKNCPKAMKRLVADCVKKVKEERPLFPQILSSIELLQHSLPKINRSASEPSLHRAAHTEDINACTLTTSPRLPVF
T1 sequence (Q02750 whole entry, looked up): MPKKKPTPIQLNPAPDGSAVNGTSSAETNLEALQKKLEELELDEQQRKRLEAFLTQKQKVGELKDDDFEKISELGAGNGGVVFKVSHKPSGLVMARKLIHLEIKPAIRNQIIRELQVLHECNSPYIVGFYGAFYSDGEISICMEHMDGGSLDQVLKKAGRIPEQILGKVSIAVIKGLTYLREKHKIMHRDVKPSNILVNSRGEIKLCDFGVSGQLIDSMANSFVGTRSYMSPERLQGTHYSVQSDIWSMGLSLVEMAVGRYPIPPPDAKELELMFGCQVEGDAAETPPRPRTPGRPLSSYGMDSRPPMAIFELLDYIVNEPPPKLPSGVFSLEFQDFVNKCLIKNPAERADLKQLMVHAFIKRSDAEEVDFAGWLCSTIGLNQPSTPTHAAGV

Q: What does the source list for `N#CC(=C(/N)Sc1ccccc1N)/C(C#N)=C(\N)Sc1ccccc1N`?
A: GI50 (HCT-116 [1]): 19.4 µM; inhibition at 15 µM (HCT-116 [2]): 35%

Q: `COc1cc(CN(CCC2CCCCN2)C(=O)CCCc2ccccc2)ccc1OCc1ccccc1` (centres undefined) was tested. Which GI50 (HCT-116 [1]) did it give?
A: The GI50 was 3.5 µM.

Q: What about the inhibition [3] of the same compound?
A: Its inhibition is 0%.

Q: And the GI50 (HCT-116 [4])?
A: The GI50 was 5.4 µM.

Q: And the inhibition [5]?
A: The inhibition was 100%.

Q: What does the source list for `COc1cc(CN(CCc2ccccn2)C(=O)CCCCc2ccccc2)ccc1OCc1ccccc1`?
A: GI50 (HCT-116 [1]): 20.6 µM; IC50 [6]: 9 µM; GI50 (HCT-116 [4]): 16.2 µM

Q: Which results are given for `O=C(CCCCc1ccccc1)N(CCc1ccccn1)Cc1ccc(OCc2ccccc2)c(O)c1`?
A: IC50 [6]: 19.4 µM; GI50 (HCT-116 [4]): 31.6 µM

Q: With `COc1cc(CN(CCc2cccc(O)n2)C(=O)CCCCc2ccccc2)ccc1OCc1ccccc1` as the compound, how does the GI50 (HCT-116 [1]) read?
A: Its GI50 is 32.3 µM.

Q: What about the IC50 [6] of the same compound?
A: Its IC50 is 12.3 µM.

Q: And the GI50 (HCT-116 [4])?
A: Its GI50 is 22.6 µM.

Q: For `COc1cc(C(=O)N(CCc2ccccn2)Cc2ccccc2Cl)ccc1OCc1ccccc1`, which GI50 (HCT-116 [1]) is on record?
A: The GI50 was 18.8 µM.

Q: What about the IC50 [6] of the same compound?
A: The IC50 was 16.2 µM.

Q: What about the GI50 (HCT-116 [4]) of the same compound?
A: The GI50 was 29 µM.

Q: Which GI50 (HCT-116 [1]) does the source give for `O=C(CCCCc1ccccc1)N(CCc1ccccn1)Cc1ccc(OCc2ccccc2)c(OCCO)c1` here?
A: The GI50 was 14.4 µM.

Q: What about the IC50 [6] of the same compound?
A: The IC50 was 14.2 µM.

Q: And the GI50 (HCT-116 [4])?
A: Its GI50 is 18.6 µM.

Q: For `CNC(=O)c1cc(Oc2ccc(NC(=O)Nc3ccc(Cl)c(C(F)(F)F)c3)cc2)ccn1` [SORAFENIB], which GI50 (HCT-116 [1]) is on record?
A: The GI50 was 6.6 µM.

Q: What about the GI50 (HCT-116 [4]) of the same compound?
A: Its GI50 is 5.4 µM.

Q: How did the inhibition [7] turn out when `COc1ccc(CN(CCc2ccccn2)C(=O)c2ccccc2Cl)cc1OCc1ccccc1` was run?
A: The inhibition was 32%.

Q: `COc1cc(CN(CCc2ccccn2)C(=O)c2ccccc2Cl)ccc1OCc1ccccc1` was tested. Which GI50 (HCT-116 [1]) did it give?
A: Its GI50 is 22.1 µM.

Q: What about the IC50 [6] of the same compound?
A: The IC50 was 20.6 µM.

Q: What about the GI50 (HCT-116 [4]) of the same compound?
A: The GI50 was 24.7 µM.

Q: For `COc1ccc(CN(CCc2ccccn2)C(=O)c2ccccc2Cl)cc1OC`, which inhibition [7] is on record?
A: Its inhibition is 24%.

Q: Which inhibition [7] does the source give for `COc1cc(CN(CCc2ccccn2)C(=O)C(N)Cc2ccccc2)ccc1OCc1ccccc1` (centres undefined) here?
A: Its inhibition is 14%.

Q: `COc1cc(CN(CCc2ccccn2)C(=O)CNCc2ccccc2)ccc1OCc1ccccc1` was tested. Which inhibition [7] did it give?
A: Its inhibition is 6%.

Q: Which inhibition [7] does the source give for `COc1cc(CN(CCc2ccccn2)C(=O)COCc2ccccc2)ccc1OCc1ccccc1` here?
A: The inhibition was 43%.

Q: How did the GI50 (HCT-116 [1]) turn out when `COc1cc(CN(CCc2ccccn2)C(=O)C2CC2c2ccccc2)ccc1OCc1ccccc1` (trans isomer) was run?
A: The GI50 was 25.9 µM.

Q: And the IC50 [6]?
A: Its IC50 is 10.5 µM.

Q: What about the GI50 (HCT-116 [4]) of the same compound?
A: Its GI50 is 23.9 µM.

Q: With `O=C(c1ccccc1Cl)N(CCc1ccccn1)CC1CCN(CCc2ccccc2)CC1` as the compound, how does the inhibition at 60 µM (HCT-116 [8]) read?
A: The inhibition at 60 µM was 32%.

Q: And the inhibition [9]?
A: The inhibition was 7%.

Q: Which GI50 (HCT-116 [1]) does the source give for `COc1cc(CN(CCc2ccccn2)C(=O)CCC(C)c2ccccc2)ccc1OCc1ccccc1` (centres undefined) here?
A: Its GI50 is 23.5 µM.

Q: What about the IC50 [6] of the same compound?
A: Its IC50 is 11.2 µM.

Q: And the GI50 (HCT-116 [4])?
A: The GI50 was 13.2 µM.

Q: With `COc1cc(CN(Cc2ccccc2Cl)C(=O)Cc2ccccn2)ccc1OCc1ccccc1` as the compound, how does the IC50 [6] read?
A: The IC50 was 25.3 µM.
